From patent US20110034384A1, “COMBINATION VEGFR2 THERAPY WITH mTOR INHIBITORS” (Bristol-Myers Squibb Company, priority 2007, published 2011)
Entries after “also recorded” stand apart in the source; their conditions may differ.

B1: Comp-I: the VEGFR2 specific inhibitor represented by SEQ ID NO: 4; a VEGFR-2 binding 10Fn3 fibronectin based scaffold polypeptide (protein)
chain: GEVVAATPTSLLISWRHPHFPTRYYRITYGETGGNSPVQEFTVPLQPPTATISGLKPGVDYTITVYAVTDGRNGRLLSIPISINYRTEIDKPCQ

Experiments:
Type in all cases: in vivo, nude mice
Colo205 tumor [1] = assay: Colo205 xenograft: Comp-I, Temsirolimus and their combination (Example 1); conditions: for Colo205 tumor growth inhibition (in words): 21 days under treatment, FIG. 1, Table 2; for Tumor Volume Average: i.p., Comp-I 60 mg/kg TIW, Temsirolimus 20 mg/kg BIW, Combo 60/20 mg/kg TIW/BIW
Description: Human Colo205 cells were injected subcutaneously into the flanks of nude mice. Mice were randomized and treatments initiated when tumors reached an average size of 235 mm^3. Optimal doses of Comp-I (the VEGFR2 specific inhibitor represented by SEQ ID NO: 4) and Temsilorimus were administered intraperitoneally to Colo-205 tumor bearing-mice in doses and schedules as indicated in Table 1. Tumor growth was evaluated for 21 days under treatment (FIG. 1). Mice were taken off treatment after day 21 until day 57, with a continuous assessment of tumor growth (FIG. 2). Control was euthanized on Day 41. [table] Tumors were measured with calipers twice a week. Tumor volumes (mm^3) were calculated by the formula [π/6 (L×W^2)], where L represents the largest tumor diameter (mm) and W represents the smallest tumor diameter (mm). Tumor measurements were noted as absolute values. Animal body weights were determined weekly during the course of the experiment. Tumor Growth Inhibition (TGI) was calculated as the percent tumor growth of treated (T) groups from control group (vehicle, C). Tumor growth was calculated by subtracting initial tumor volume (at day 0) from the final tumor volume at the end of the experiment. TGI=(1−[T-T0]/[C-C0])*100.

Colo205 tumor [2] = assay: Colo205 xenograft: Comp-I vs. Bevacizumab, Temsirolimus added at Day 17 (Example 2); conditions: for Day 22 (TV, mm3) (Mean) / Day 22 (TV, mm3) Average ± STDErr: Temsirolimus 10 mg/kg BIW added on Day 17 to Bevacizumab 10 mg/kg BIW, Comp-I 80 mg/kg TIW or vehicle (n = 4); for Day 1 (TV, mm3) (Mean) / Day 1 (TV, mm3) Average ± STDErr: i.p.; for Day 1 (TV, mm3) (Mean) / Day 1 (TV, mm3) Average ± STDErr / Day 19 (TV, mm3) (Mean) / Day 19 (TV, mm3) Average ± STDErr / Percentage of tumor growth inhibition: Bevacizumab 10 mg/kg BIW, Comp-I 80 mg/kg TIW; for Day 19 (TV, mm3) (Mean) / Day 19 (TV, mm3) Average ± STDErr: Temsirolimus 10 mg/kg BIW added on Day 17; for Day 19 (TV, mm3) (Mean) / Day 19 (TV, mm3) Average ± STDErr / Percentage of tumor growth inhibition: Day 19; for Percentage of tumor growth inhibition: Temsirolimus added on Day 17
Description: (§1) Tumors were measured with calipers twice a week. Tumor volumes (mm^3) were calculated by the formula [π/6 (L×W^2)], where L represents the largest tumor diameter (mm) and W represents the smallest tumor diameter (mm). Tumor measurements were noted as absolute values. Animal body weights were determined weekly during the course of the experiment. Tumor Growth Inhibition (TGI) was calculated as the percent tumor growth of treated (T) groups from control group (vehicle, C). Tumor growth was calculated by subtracting initial tumor volume (at day 0) from the final tumor volume at the end of the experiment. TGI=(1−[T-T0]/[C-C0])*100.
Human Colo205 cells were injected subcutaneously into the flanks of nude mice. Mice were randomized and treatments initiated when tumors reached an average size of 167 mm^3. Comp-I and Bevacizumab were administered intraperitoneally to Colo-205 tumor bearing-mice in doses and schedules as indicated in Table 4. Temsirolimus treatment (10 mg/kg, BIW) was initiated on Day 17 added to Comp-I and Bevacizumab treatments on Day 17. Half the mice (n=4) in the vehicle group were initiated on torisel the same day and the other half (n=4) remained under vehicle treatment. Both anti-angiogenic treatments reduced […] to similar levels by Day 22 (FIG. 4). Percentage of tumor growth inhibition was determined as follows: Day 19/Comp-I (89%), Day 19/Bevacizumab (87%).

Colo205 tumor [3] = assay: Colo205 xenograft: Comp-I vs. Bevacizumab, Temsirolimus added at Day 9 (Example 3); conditions: for Day 14 (TV, mm^3) (Mean) / Day 14 (TV, mm^3) Average ± STDErr: Temsirolimus 10 mg/kg BIW added on Day 9 to Bevacizumab 10 mg/kg BIW, Comp-I 80 mg/kg TIW or vehicle (n = 4); for Day 1 (TV, mm^3) (Mean) / Day 1 (TV, mm^3) Average ± STDErr: i.p.; for Day 1 (TV, mm^3) (Mean) / Day 1 (TV, mm^3) Average ± STDErr / Day 8 (TV, mm^3) (Mean) / Day 8 (TV, mm^3) Average ± STDErr / Percentage of tumor growth inhibition: Bevacizumab 10 mg/kg BIW, Comp-I 80 mg/kg TIW; for Day 8 (TV, mm^3) (Mean) / Day 8 (TV, mm^3) Average ± STDErr: Day 8 (before Temsirolimus)
Description: as §1
Human Colo205 cells were injected subcutaneously into the flanks of nude mice. Mice were randomized and treatments initiated when tumors reached an average size of 411 mm^3. Comp-I and Bevacizumab were administered intraperitoneally to Colo-205 tumor bearing-mice in doses and schedules as indicated in Table 5. Temsirolimus (10 mg/kg, BIW) was added to Comp-I and Bevacizumab treatments on Day 9. Half the mice (n=4) in the vehicle group were initiated on torisel the same day and the other half (n=4) remained under vehicle treatment Both anti-angiogenic treatments reduced […] to similar levels by Day 14 (FIG. 5).

HT1080 tumor = assay: HT1080 xenograft: Comp-I vs. Bevacizumab, Temsirolimus added at Day 23 (Example 4); conditions: for Day 1 (TV, mm^3) (Mean) / Day 1 (TV, mm^3) Average ± STDErr / Day 23 (TV, mm^3) (Mean) / Day 23 (TV, mm^3) Average ± STDErr: i.p.
Description: Human HT1080 cells were injected subcutaneously into the flanks of nude mice. Mice were randomized and treatments initiated when tumors reached an average size of 201 mm^3. Comp-I and Bevacizumab were administered intraperitoneally to HT1080 tumor bearing-mice in doses and schedules as indicated in Table 6. Temsirolimus (10 mg/kg, BIW) was added to Comp-I and Bevacizumab treatments on Day 23. Both anti-angiogenic treatments reduced […] as measured on Day 27 (FIG. 6).

[4] = Day 11, Temsirolimus 10 mg/kg BIW added on Day 9
[5] = Bevacizumab 5 mg/kg BIW, Comp-I 100 mg/kg TIW
[6] = QW groups: Bevacizumab 5 mg/kg QW, Comp-I 100 mg/kg QW

Molecule | Colo205 tumor growth inhibition (in words) (Colo205 tumor [1]) | Tumor Volume Average (Colo205 tumor [1]; Day 1) | Tumor Volume Average (Colo205 tumor [1]; Day 5) | Tumor Volume Average (Colo205 tumor [1]; Day 8) | Tumor Volume Average (Colo205 tumor [1]; Day 11) | Tumor Volume Average (Colo205 tumor [1]; Day 14) | Tumor Volume Average (Colo205 tumor [1]; Day 19) | Tumor Volume Average (Colo205 tumor [1]; Day 21) | Day 22 (TV, mm3) (Mean) (Colo205 tumor [2]) | Day 22 (TV, mm3) Average ± STDErr (Colo205 tumor [2]) | Day 14 (TV, mm^3) (Mean) (Colo205 tumor [3]) | Day 14 (TV, mm^3) Average ± STDErr (Colo205 tumor [3]) | Day 1 (TV, mm3) (Mean) (Colo205 tumor [2]) | Day 1 (TV, mm3) Average ± STDErr (Colo205 tumor [2]) | Day 19 (TV, mm3) (Mean) (Colo205 tumor [2]) | Day 19 (TV, mm3) Average ± STDErr (Colo205 tumor [2]) | Percentage of tumor growth inhibition (Colo205 tumor [2]) | Day 1 (TV, mm^3) (Mean) (Colo205 tumor [3]) | Day 1 (TV, mm^3) Average ± STDErr (Colo205 tumor [3]) | Day 8 (TV, mm^3) (Mean) (Colo205 tumor [3]) | also measured
CO[C@H]1C[C@@H]2CC[C@@H](C)[C@@](O)(O2)C(=O)C(=O)N2CCCC[C@H]2C(=O)O[C@H]([C@H](C)C[C@@H]2CC[C@@H](OC(=O)C(C)(CO)CO)[C@H](OC)C2)CC(=O)[C@H](C)/C=C(\C)[C@@H](O)[C@@H](OC)C(=O)[C@H](C)C[C@H](C)/C=C/C=C/C=C/1C [Temsirolimus, temsirolimus] | equally inhibited | 237.19 mm^3 | 287.19 mm^3 | 313.73 mm^3 | 354.14 mm^3 | 378.44 mm^3 | 395.95 mm^3 | 422.42 mm^3 | 667.5 mm3 | 612.3 ± 99.5 mm3 | 821.1 mm^3 | 849.6 ± 106.6 mm^3 |  |  |  |  |  |  |  |  | 
Bevacizumab: anti-angiogenic treatment; Bevacizumab-mediated VEGF inhibition |  |  |  |  |  |  |  |  | 250.7 mm3 | 246.5 ± 21.2 mm3 | 458.9 mm^3 | 455.1 ± 36.2 mm^3 | (166.7) mm3 | 167.7 ± 7.7 mm3 | (299.2) mm3 | 290.3 ± 24.6 mm3 | 87% | (398.6) mm^3 | 413.0 ± 32.9 mm^3 | (511.8) mm^3 | Day 8 (TV, mm^3) Average ± STDErr (Colo205 tumor [3]): 519.0 ± 50.0 mm^3; Percentage of tumor growth inhibition (Colo205 tumor [3]; Day 8): 38.99%; Percentage of tumor growth inhibition (Colo205 tumor [3]; [4]): 82.2%; Day 1 (TV, mm^3) (Mean) (HT1080 tumor; [5]): 191.9 mm^3; Day 1 (TV, mm^3) Average ± STDErr (HT1080 tumor; [5]): 201.6 ± 19.1 mm^3; Day 1 (TV, mm^3) (Mean) (HT1080 tumor; [6]): 195.8 mm^3; Day 1 (TV, mm^3) Average ± STDErr (HT1080 tumor; [6]): 202.0 ± 18.8 mm^3; Day 23 (TV, mm^3) (Mean) (HT1080 tumor; [5]): 517.4 mm^3; Day 23 (TV, mm^3) Average ± STDErr (HT1080 tumor; [5]): 486.9 ± 34.6 mm^3; Day 23 (TV, mm^3) (Mean) (HT1080 tumor; [6]): 598.3 mm^3; Day 23 (TV, mm^3) Average ± STDErr (HT1080 tumor; [6]): 619.3 ± 69.6 mm^3
B1 | inhibits Colo205 tumor growth to the same extent as the mTOR inhibitor Temsirolimus; also recorded: equally inhibited | 235.25 mm^3 | 301.95 mm^3 | 325.42 mm^3 | 369.21 mm^3 | 403.32 mm^3 | 426.71 mm^3 | 455.84 mm^3 | 247.1 mm3 | 239.4 ± 18.3 mm3 | 449.2 mm^3 | 444.6 ± 30.2 mm^3 | (166.2) mm3 | 167.4 ± 8.1 mm3 | (293.1) mm3 | 289.4 ± 21.5 mm3 | 89% | (417.2) mm^3 | 413.5 ± 28.7 mm^3 | (505.8) mm^3 | Day 8 (TV, mm^3) Average ± STDErr (Colo205 tumor [3]): 502.5 ± 33.6 mm^3; Percentage of tumor growth inhibition (Colo205 tumor [3]; Day 8): 53.03%; Percentage of tumor growth inhibition (Colo205 tumor [3]; [4]): 91.5%; Day 1 (TV, mm^3) (Mean) (HT1080 tumor; [5]): 183.4 mm^3; Day 1 (TV, mm^3) Average ± STDErr (HT1080 tumor; [5]): 205.1 ± 20.9 mm^3; Day 1 (TV, mm^3) (Mean) (HT1080 tumor; [6]): 207.0 mm^3; Day 1 (TV, mm^3) Average ± STDErr (HT1080 tumor; [6]): 203.4 ± 18.7 mm^3; Day 23 (TV, mm^3) (Mean) (HT1080 tumor; [5]): 460.5 mm^3; Day 23 (TV, mm^3) Average ± STDErr (HT1080 tumor; [5]): 432.8 ± 23.6 mm^3; Day 23 (TV, mm^3) (Mean) (HT1080 tumor; [6]): 492.9 mm^3; Day 23 (TV, mm^3) Average ± STDErr (HT1080 tumor; [6]): 533.4 ± 47.9 mm^3; sensitivity of tumor growth, Comp-I vs. Bevacizumab (in words) (HT1080 tumor; HT1080 model): tumor growth is more sensitive to Comp-1-mediated VEGFR-2 inhibition than to Bevacizumab-mediated VEGF inhibition
